Earlier results in PMC10667676, “Pharmacokinetics and bioequivalence of sunitinib and Sutent® in Chinese healthy subjects: an open-label, randomized, crossover study” (Frontiers in Pharmacology, 2023).

Key:
[1] = set-up: method as in Bello and e t al., 2006; settings: healthy subjects, high-fat, high-calorie diet, oral 50 mg; ref Bello and e t al., 2006
[2] = system: CYP enzymes; settings: ref Zhou and Gallo, 2010; Kassem et al., 2012a

For `CCN(CC)CCNC(=O)c1c(C)[nH]c(/C=C2\C(=O)Nc3ccc(F)cc32)c1C` [Sunitinib], the Elimination half-life (healthy subjects' plasma, no reference given) is given as 40 to 60 h, the “Elimination through the feces, share of total administered dose” value (primary route of elimination, ref Adams and Leggas, 2007) is given as 61% and the “Renal excretion, share of total administered dose” value (ref Adams and Leggas, 2007) is given as 16%. The “Effect of food consumption on bioavailability” value (ref Bello and e t al., 2006) was “unaltered”, the “AUC0-∞” value [1] was 1489 (1276–1736) ng*h/mL and the “AUC0–t” value [1] was 1476 (1264–1724) ng*h/mL. The Cmax [1] was 25.1 (21.1–29.7) ng/mL, the Tmax [1] was 8.03 h and the t1/2 [1] was 59.1 h. For the same compound, the “Inhibition or induction of CYP enzymes” value [2] was “unlikely to significantly inhibit or induce”.
